Holding throughout (format): functional, organism-based
For test [1], the system named is Escherichia coli. The test is described as follows: The ability of the artificial siderophores to support the growth of Escherichia coli strain AN 193 was evaluated at the concentration of 50 and 500 uM; No growth around the disc.
For test [2], the system named is Escherichia coli. The test is described as follows: The ability of the artificial siderophores to support the growth of Escherichia coli strain RWB7 was evaluated at the concentration of 50 and 500 uM; No growth around the disc.
In test [3] the test system is Escherichia coli. The test is described as follows: The ability of the artificial siderophores to support the growth of Escherichia coli strain RWB7 was evaluated at the concentration of 25 uM; No growth around the disc.
In test [4] the test system is Escherichia coli. The test is described as follows: The ability of the artificial siderophores to support the growth of Escherichia coli strain BN 3306 was evaluated at the concentration of 50 and 500 uM; No growth around the disc.
For test [5], the system named is Escherichia coli. The test is described as follows: The ability of the artificial siderophores to support the growth of Escherichia coli strain BN 3300 was evaluated at the concentration of 50 and 500 uM; No growth around the disc.
The test system of test [6] is Escherichia coli. The test is described as follows: The ability of the artificial siderophores to support the growth of Escherichia coli strain RW 193 was evaluated at the concentration of 50 and 500 uM; No growth around the disc.
For test [7], the system named is Escherichia coli. As to the kind of experiment: The ability of the artificial siderophores to support the growth of Escherichia coli strain BN 3306 was evaluated at the concentration of 50 uM; No growth around the disc.
The subject of test [8] is Escherichia coli. The test is described as follows: The ability of the artificial siderophores to support the growth of Escherichia coli strain RWB7 was evaluated at the concentration of 50 uM; No growth around the disc.
Test [9] has as its system Escherichia coli. The test is described as follows: The ability of the artificial siderophores to support the growth of Escherichia coli strain BN 3300 was evaluated at the concentration of 50 uM; No growth around the disc.
The subject of test [10] is Escherichia coli. The test is described as follows: The ability of the artificial siderophores to support the growth of Escherichia coli strain AN 193 was evaluated at the concentration of 50 uM; No growth around the disc.

Eight compounds from ChEMBL document CHEMBL1122957, “Artificial siderophores. 2. Syntheses of trihydroxamate analogues of rhodotorulic acid and their biological iron transport capabilities in Escherichia coli” (1985) can be followed below.

In the case of `CC(=O)N(O)CCCCCn1c(=O)n(CCCCCN(O)C(C)=O)c(=O)n(CCCCCN(O)C(C)=O)c1=O`, the Inhibitory diameter entry in the test on Escherichia coli [1] and in the test with Escherichia coli [2] was “Not toxic” in each case.

Consider `O=C(N[C@H]1COC(=O)[C@@H](NC(=O)c2cccc(O)c2O)COC(=O)[C@@H](NC(=O)c2cccc(O)c2O)COC1=O)c1cccc(O)c1O`, for which, in the test with Escherichia coli [3], the Inhibitory diameter entry is “Not toxic”.

Consider `CN(O)C(=O)CCCCCn1c(=O)[nH]c(=O)n(CCCCCC(=O)N(C)O)c1=O`, for which the Inhibitory diameter entry in the test with Escherichia coli [1], in the test on Escherichia coli [4], with Escherichia coli [5], in the test with Escherichia coli [6] and in the test with Escherichia coli [2] was “Not toxic” in each case.

For the compound `CC(=O)N(O)CCCn1c(=O)n(CCCN(O)C(C)=O)c(=O)n(CCCN(O)C(C)=O)c1=O`, the Inhibitory diameter result in the test on Escherichia coli [1] and with Escherichia coli [2] was “Not toxic” throughout.

For `CC(=O)N(O)CCCCn1c(=O)n(CCCCN(O)C(C)=O)c(=O)n(CCCCN(O)C(C)=O)c1=O`, in the test with Escherichia coli [2], the Inhibitory diameter entry was “Not toxic”.

`CC(=O)N(O)CCC[C@@H]1NC(=O)[C@H](CCCN(O)C(C)=O)NC1=O`: the Inhibitory diameter entry with Escherichia coli [7], with Escherichia coli [8] and in the test with Escherichia coli [9] was “Not toxic” in each case.

As for `CN(O)C(=O)CCCCCn1c(=O)n(CCCCCC(=O)N(C)O)c(=O)n(CCCCCC(=O)N(C)O)c1=O`, the Inhibitory diameter result in the test with Escherichia coli [1], in the test on Escherichia coli [4], with Escherichia coli [5] and in the test on Escherichia coli [2] was “Not toxic” in each case.

For FERRICHROME, the Inhibitory diameter result with Escherichia coli [7], in the test on Escherichia coli [8], in the test with Escherichia coli [9] and in the test on Escherichia coli [10] was “Not toxic” throughout.
